Measurements from US7858790B2, “Modulators of muscarinic receptors” (Vertex Pharmaceuticals Incorporated, priority 2006, dated 2010).

Experiments:
M4 muscarinic receptor = biological target: T1, M4 muscarinic receptor (Homo sapiens, UniProt P08173); assay: Functional mobilization of intracellular calcium (FLIPR) in CHO cells expressing M4 muscarinic receptor; assay type: cell-based; conditions: for M4 Activity: CHO cells expressing M4, calcium mobilization; for Emax: CHO, 100% efficacy is the maximum response obtained with the Carbachol control
T1 construct: expressed in transfected cells; host or cells: CHO (M4-CHO recombinant cell line)
T1 sequence (P08173 1-479): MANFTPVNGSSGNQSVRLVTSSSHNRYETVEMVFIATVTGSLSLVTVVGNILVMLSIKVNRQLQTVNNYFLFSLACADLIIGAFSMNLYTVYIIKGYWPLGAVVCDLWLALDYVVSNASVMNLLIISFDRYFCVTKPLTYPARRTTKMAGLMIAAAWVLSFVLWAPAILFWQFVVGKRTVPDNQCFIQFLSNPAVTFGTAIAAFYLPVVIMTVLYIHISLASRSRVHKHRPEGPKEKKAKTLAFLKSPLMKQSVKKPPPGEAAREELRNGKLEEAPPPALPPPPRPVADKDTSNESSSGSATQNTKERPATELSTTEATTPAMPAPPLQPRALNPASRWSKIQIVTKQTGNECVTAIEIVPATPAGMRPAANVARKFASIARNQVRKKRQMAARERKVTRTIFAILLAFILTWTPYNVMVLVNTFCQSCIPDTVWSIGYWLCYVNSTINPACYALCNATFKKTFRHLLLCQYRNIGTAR
Protocol: (§1) VI. Assays for Detecting and Measuring Inhibition Properties of Compounds Functional Mobilization of Intracellular Calcium to Determine Muscarinic Receptor Activity:
(§2) CHO cells expressing muscarinic receptors (M1 to M5) are grown as monolayers in tissue culture flasks at 37° C. in a humidified atmosphere containing 5% CO2 and passaged every 3-5 days. The growth media is Dulbecco's modified eagles medium (DMEM, Gibco Cat# 12430-054), containing 25 mM Hepes and supplemented with Fetal Bovine Serum (Hyclone, cat# SH30071.03), 0.1 mM of MEM non-essential amino acids (GIBCO, Cat# 11140-050), 1 mM MEM Sodium Pyruvate (GIBCO Cat# 11360-070) and 100 units/ml of Penicillin G and 100 μg/ml of Streptomycin (GIBCO Cat# 15140-122). The recombinant muscarinic receptor cell lines are grown under antibiotic pressure with media containing 25 μg/ml zeocin and 500 μg/ml G418 (M1-CHO), 4 μg/ml puromycin, 50 μg/ml zeocin and 2.5 μg/ml blasticidin (M2 and M4-CHO) or 50 μg/ml zeocin and 4 μg/ml puromycin (M3 and M5-CHO).
(§3) Cells are harvested at 80-90% confluence using Versene (GIBCO Cat# 15040-066), collected by centrifugation and seeded 18-24 hours prior to running the calcium assay at a density of 5,000-10,000 cells/well in […], clear-bottomed 384-well plates (BD Biocoat, poly-D-lysine, Cat#356663). The day of the experiment, the cells are washed with a plate washer (Bioteck Instruments, ELX 405) using bath buffer (140-mM NaCl, 4.5-mM KCl, 2-mM CaCl2, 1-mM MgCl2, 10-mM Hepes-Na, 10-mM Glucose, pH 7.4, with NaOH) containing 1 mM Probenecid. Next, the calcium dye Fluo-3 (25 μl/well of Fluo-3 μM at 4 μM, Molecular Probes F-1241, in Bath 1 buffer containing 1 mM Probenecid) is added to the 25 μl of Bath 1 remaining in each well after the plate wash and the dye is loaded at 37° C. in the tissue culture incubator for 60-90 min. The fluorescent dye is removed using the plate washer with Bath 1 containing 1 mM Probenecid, leaving 25 μl/well of this solution after the wash. Alternatively, cells can be loaded with the calcium indicator from Molecular Devices (Calcium 3 Assay Reagents, Cat # R7181) adding 5 μl of a 5× solution dye in Bath 1 containing 1 mM Probenecid (10 ml per dye flask cat# R7182 to generate a solution 20×) to 20 μl of the same buffer. After loading for 60 min, the experiment can be run without having to remove the dye.
(§4) Compounds are prepared at a 2× fold concentration in a 96-well plate (round bottom, Costar Corning cat# 3656), by reconstituting the pre-spotted compounds in bath 1 containing 1 mM probenecid. The final concentration DMSO is 0.5%, and the amount of DMSO is normalized across the assay plate. To determine an agonist action of the compounds on muscarinic receptors, the reconstituted compounds are added (25 μl compound/well) to the cell assay plate (containing 25 μl/well) using the multi-channel robotic system of the FLIPR 3 Instrument (Molecular Devices, Sunnyvale, Calif.). To determine a functional inhibitory-action of the compounds on muscarinic receptors, the reconstituted compounds are added (25 μl compound/well) to the assay plate and pre-incubated for 15 min prior to adding 25 μl of Carbachol at 3× the EC80 for each muscarinic subtype. Alternatively, the compounds can be co-applied simultaneously with the agonist. In both assay modes, the fluorescence is recorded for 60 sec (excitation wavelength is […] and emission wavelength 540 nm) using the FLIPR 3 instrument.
(§5) The potency, efficacy and selectivity of the muscarinic compounds were evaluated by screening the compound activity across the whole family (M1 to M5 cells). Compounds were also screened for activity on other proteins such as other GPCRs and ion channels to determine selectivity on M4 receptors.
(§6) Examples of activities and efficacies of the muscarinic compounds of formulae (I, Ia, and Ib) on modulating M1 and M4 receptors are shown below in Table 8. […]

M1 muscarinic receptor = biological target: T2, M1 muscarinic receptor (Homo sapiens, UniProt P11229); assay: Functional mobilization of intracellular calcium (FLIPR) in CHO cells expressing M1 muscarinic receptor; assay type: cell-based; conditions: for M1 Activity: CHO cells expressing M1, calcium mobilization; for Emax: CHO, 100% efficacy is the maximum response obtained with the Carbachol control
T2 construct: expressed in transfected cells; host or cells: CHO (M1-CHO recombinant cell line)
T2 sequence (P11229 1-460): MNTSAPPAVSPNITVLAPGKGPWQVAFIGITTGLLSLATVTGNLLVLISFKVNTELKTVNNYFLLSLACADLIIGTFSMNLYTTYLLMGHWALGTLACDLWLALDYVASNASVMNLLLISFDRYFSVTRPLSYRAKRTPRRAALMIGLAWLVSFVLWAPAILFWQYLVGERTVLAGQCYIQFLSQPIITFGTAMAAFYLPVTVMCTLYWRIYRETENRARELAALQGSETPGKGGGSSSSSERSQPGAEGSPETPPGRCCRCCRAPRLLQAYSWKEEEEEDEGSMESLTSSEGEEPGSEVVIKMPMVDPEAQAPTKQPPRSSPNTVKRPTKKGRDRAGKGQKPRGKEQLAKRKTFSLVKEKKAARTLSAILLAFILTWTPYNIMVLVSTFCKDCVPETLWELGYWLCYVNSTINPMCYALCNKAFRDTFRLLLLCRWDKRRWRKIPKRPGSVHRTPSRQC
Protocol: as §1, §2, §3, §4, §5, §6

Row | Compound | M4 Activity (M4 muscarinic receptor) | Emax (M4 muscarinic receptor) | M1 Activity (M1 muscarinic receptor) | Emax (M1 muscarinic receptor)
1 | CCOC(=O)N1C2CCC1CC(N1CCC3(C=C(C(=O)O)c4ccccc43)CC1)C2 (stereo not drawn) [compound 13] | +++ (activity was measured to be less than 2.0 μM) | 25 to 100% | +++ (activity was measured to be less than 2.0 μM) | 25 to 100%
2 | CCC(CC)NC(=O)C1=CC2(CCN(C3CCN(C(=O)N4CCOCC4)CC3)CC2)c2ccccc21 [compound 18] | + (activity was measured to be greater than 10.0 μM) | < 25% | + (activity was measured to be greater than 10.0 μM) | < 25%
3 | CNC(=O)C1=CC2(CCN(C3C[C@@H]4CC[C@@H]3C4)CC2)c2ccccc21 (stereo in doubt) [Compound No. 38, 1′-(bicyclo[2.2.1]heptan-2-yl)-N-methylspiro[indene-1,4′-piperidine]-3-carboxamide] | +++ (activity was measured to be less than 2.0 μM) | 25 to 100% | + (activity was measured to be greater than 10.0 μM) | 25 to 100%
4 | CCC(CC)NC(=O)C1=CC2(CCN(C3CCN(C(=O)C(C)C)CC3)CC2)c2ccccc21 [compound 22] | + (activity was measured to be greater than 10.0 μM) | < 25% | + (activity was measured to be greater than 10.0 μM) | < 25%
5 | CCOC(=O)N1C2CCC1CC(N1CCC3(CC=C(C(=O)N4CCCC4)c4ccccc43)CC1)C2 (stereo not drawn) [compound 5] | +++ (activity was measured to be less than 2.0 μM) | 25 to 100% | +++ (activity was measured to be less than 2.0 μM) | 25 to 100%
6 | CCOC(=O)N1CCC(N2CCC3(C=C(C(=O)NC)c4ccccc43)CC2)CC1 [compound 65] | +++ (activity was measured to be less than 2.0 μM) | 25 to 100% | +++ (activity was measured to be less than 2.0 μM) | 25 to 100%
7 | O=C(NC1CC1)C1=CC2(CCN(CC3CC4C=CC3C4)CC2)c2ccccc21 (stereo not drawn) [compound 32] | +++ (activity was measured to be less than 2.0 μM) | 25 to 100% | + (activity was measured to be greater than 10.0 μM) | 25 to 100%
8 | CCC(CC)NC(=O)C1=CC2(CCN(C3C[C@@H]4CC[C@@H]3C4)CC2)c2ccccc21 (stereo in doubt) [Compound No. 14, 1′-(bicyclo[2.2.1]heptan-2-yl)-N-(pentan-3-yl)spiro[indene-1,4′-piperidine]-3-carboxamide] | – | 25 to 100% | – | < 25%
9 | CCC(CC)NC(=O)C1=CC2(CCN(CCCCSC)CC2)c2ccccc21 [compound 55] | + (activity was measured to be greater than 10.0 μM) | < 25% | + (activity was measured to be greater than 10.0 μM) | < 25%
10 | CCC(CC)NC(=O)C1=CC2(CCN(C3CCNCC3)CC2)c2ccccc21 [compound 7] | + (activity was measured to be greater than 10.0 μM) | < 25% | + (activity was measured to be greater than 10.0 μM) | < 25%
11 | CC(C)(C)CCN1CCC2(C=C(C(=O)NC3CCCC3)c3ccccc32)CC1 [compound 77] | + (activity was measured to be greater than 10.0 μM) | < 25% | + (activity was measured to be greater than 10.0 μM) | 25 to 100%
12 | CCC(CC)NC(=O)C1=CC2(CCN(CC3CCCCC3)CC2)c2ccccc21 [Compound No. 68, 1′-(cyclohexylmethyl)-N-(pentan-3-yl)spiro[indene-1,4′-piperidine]-3-carboxamide] | – | 25 to 100% | – | < 25%
13 | CN(C)C(=O)C1=CC2(CCN(C3CCCCCC3)CC2)c2ccccc21 [compound 44] | +++ (activity was measured to be less than 2.0 μM) | 25 to 100% | + (activity was measured to be greater than 10.0 μM) | 25 to 100%
14 | CCOC(=O)C1=CC2(CCN(CCC(C)(C)C)CC2)c2ccccc21 [compound 62] | +++ (activity was measured to be less than 2.0 μM) | 25 to 100% | + (activity was measured to be greater than 10.0 μM) | 25 to 100%
15 | CCOC(=O)N1CCC(N2CCC3(CC=C(C(=O)NC(C)C)c4ccccc43)CC2)CC1 [compound 72] | +++ (activity was measured to be less than 2.0 μM) | 25 to 100% | +++ (activity was measured to be less than 2.0 μM) | 25 to 100%
16 | CCC(CC)NC(=O)C1=CC2(CCN(CCC3CCOCC3)CC2)c2ccccc21 [compound 53] | +++ (activity was measured to be less than 2.0 μM) | 25 to 100% | + (activity was measured to be greater than 10.0 μM) | < 25%
17 | CNC(=O)C1=CC2(CCN(C3CCCCC3)CC2)c2ccccc21 [compound 58] | +++ (activity was measured to be less than 2.0 μM) | 25 to 100% | + (activity was measured to be greater than 10.0 μM) | 25 to 100%
18 | CCOC(=O)N1CCC(N2CCC3(CC=C(C(=O)N(C)C)c4ccccc43)CC2)CC1 [compound 4, ethyl 4-(4-(dimethylcarbamoyl)-2H-spiro[naphthalene-1,4′-piperidine]-1′-yl)piperidine-1-carboxylate] | +++ (activity was measured to be less than 2.0 μM) | 25 to 100% | +++ (activity was measured to be less than 2.0 μM) | 25 to 100%
19 | CCC(CC)NC(=O)C1=CC2(CCN(CCC(C)C)CC2)c2ccccc21 [compound 40] | ++ (activity was measured to be from 2.0 μM to 10.0 μM) | 25 to 100% | + (activity was measured to be greater than 10.0 μM) | < 25%
